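Five compound concentrations were applied to cells in 96-well plates for 48 hours; endpoints were derived by simple linear interpolation of the resulting dose-response curve. GI50: concentration for 50% inhibition of growth.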 The source made the active and inactive calls. Cut-off read from the data, not from the text of the source: active = GI50 up to about 1.1 µM and inactive = higher.
Columns and labels:
Assay in all cases: inhibition of tumour cell growth, NCI panel, 48 h
SNB-19 = tested on: SNB-19
786-0 = tested on: 786-0
NCI-H522 = tested on: NCI-H522
A549 = tested on: A549
NCI-H460 = tested on: NCI-H460
MDA-MB-435 = tested on: MDA-MB-435
K562 = tested on: K562
IGROV-1 = tested on: IGROV-1
DU-145 = tested on: DU-145
UO-31 = tested on: UO-31
T47D = tested on: T47D
HCT-116 = tested on: HCT-116
PC-3 = tested on: PC-3
SK-OV-3 = tested on: SK-OV-3
SNB-75 = tested on: SNB-75
MCF7 = tested on: MCF7
BT-549 = tested on: BT-549
MDA-N = tested on: MDA-N
SR = tested on: SR
EKVX = tested on: EKVX
HT-29 = tested on: HT-29
SN12C = tested on: SN12C
SW-620 = tested on: SW-620
SK-MEL-5 = tested on: SK-MEL-5
NCI/ADR-RES = tested on: NCI/ADR-RES
OVCAR-3 = tested on: OVCAR-3
Hs-578T = tested on: Hs-578T
NCI-H23 = tested on: NCI-H23
SK-MEL-2 = tested on: SK-MEL-2
HCC 2998 = tested on: HCC 2998
COLO 205 = tested on: COLO 205
Malme-3M = tested on: Malme-3M
SF-539 = tested on: SF-539
ACHN = tested on: ACHN
SK-MEL-28 = tested on: SK-MEL-28
MOLT-4 = tested on: MOLT-4
CAKI-1 = tested on: CAKI-1
SF-295 = tested on: SF-295
HL-60 = tested on: HL-60
MDA-MB-231 = tested on: MDA-MB-231
OVCAR-5 = tested on: OVCAR-5
U-251 = tested on: U-251
NCI-H226 = tested on: NCI-H226
KM12 = tested on: KM12
UACC-62 = tested on: UACC-62
SF-268 = tested on: SF-268
LOX IMVI = tested on: LOX IMVI
HCT-15 = tested on: HCT-15
OVCAR-4 = tested on: OVCAR-4
TK-10 = tested on: TK-10
CCRF-CEM = tested on: CCRF-CEM
HOP-62 = tested on: HOP-62
M14 = tested on: M14
RPMI-8226 = tested on: RPMI-8226
A498 = tested on: A498
OVCAR-8 = tested on: OVCAR-8
UACC-257 = tested on: UACC-257
RXF 393 = tested on: RXF 393

C=CCSC(C)=O
GI50 (SNB-19): > 100 µM (inactive)
GI50 (786-0): > 100 µM (inactive)
GI50 (NCI-H522): 98.9 µM (inactive)
GI50 (A549): > 100 µM (inactive)
GI50 (NCI-H460): > 100 µM (inactive)
GI50 (MDA-MB-435): > 100 µM (inactive)
GI50 (K562): > 100 µM (inactive)
GI50 (IGROV-1): > 100 µM (inactive)
GI50 (DU-145): > 100 µM (inactive)
GI50 (UO-31): > 100 µM (inactive)
GI50 (T47D): > 100 µM (inactive)
GI50 (HCT-116): > 100 µM (inactive)
GI50 (PC-3): > 100 µM (inactive)
GI50 (SK-OV-3): > 100 µM (inactive)
GI50 (SNB-75): > 100 µM (inactive)
GI50 (MCF7): > 100 µM (inactive)
GI50 (BT-549): > 100 µM (inactive)
GI50 (MDA-N): > 100 µM (inactive)
GI50 (SR): > 100 µM (inactive)
GI50 (EKVX): > 100 µM (inactive)
GI50 (HT-29): > 100 µM (inactive)
GI50 (SN12C): > 100 µM (inactive)
GI50 (SW-620): > 100 µM (inactive)
GI50 (SK-MEL-5): > 100 µM (inactive)
GI50 (NCI/ADR-RES): > 100 µM (inactive)
GI50 (OVCAR-3): > 100 µM (inactive)
GI50 (Hs-578T): > 100 µM (inactive)
GI50 (NCI-H23): > 100 µM (inactive)
GI50 (SK-MEL-2): > 100 µM (inactive)
GI50 (HCC 2998): > 100 µM (inactive)
GI50 (COLO 205): > 100 µM (inactive)
GI50 (Malme-3M): > 100 µM (inactive)
GI50 (SF-539): > 100 µM (inactive)
GI50 (ACHN): > 100 µM (inactive)
GI50 (SK-MEL-28): > 100 µM (inactive)
GI50 (MOLT-4): > 10 µM (inactive)
GI50 (CAKI-1): > 100 µM (inactive)
GI50 (SF-295): > 100 µM (inactive)
GI50 (HL-60): > 100 µM (inactive)
GI50 (MDA-MB-231): > 100 µM (inactive)
GI50 (OVCAR-5): > 100 µM (inactive)
GI50 (U-251): > 100 µM (inactive)
GI50 (NCI-H226): > 100 µM (inactive)
GI50 (KM12): > 100 µM (inactive)
GI50 (UACC-62): > 100 µM (inactive)
GI50 (SF-268): > 100 µM (inactive)
GI50 (LOX IMVI): > 100 µM (inactive)
GI50 (HCT-15): > 100 µM
GI50 (OVCAR-4): > 100 µM (inactive)
GI50 (TK-10): > 100 µM (inactive)
GI50 (CCRF-CEM): > 100 µM (inactive)
GI50 (HOP-62): > 100 µM (inactive)
GI50 (M14): > 100 µM (inactive)
GI50 (RPMI-8226): > 100 µM (inactive)
GI50 (A498): > 100 µM (inactive)
GI50 (OVCAR-8): > 100 µM (inactive)

Nc1nncc2[nH]nnc12
GI50 (SNB-19): > 100 µM (inactive)
GI50 (786-0): > 100 µM (inactive)
GI50 (A549): > 100 µM (inactive)
GI50 (NCI-H460): > 100 µM (inactive)
GI50 (MDA-MB-435): > 100 µM (inactive)
GI50 (K562): 0.186 µM (active)
GI50 (IGROV-1): > 100 µM (inactive)
GI50 (DU-145): > 100 µM (inactive)
GI50 (UO-31): > 100 µM (inactive)
GI50 (T47D): > 100 µM (inactive)
GI50 (HCT-116): > 100 µM (inactive)
GI50 (PC-3): > 100 µM (inactive)
GI50 (SNB-75): > 100 µM (inactive)
GI50 (UACC-257): > 100 µM (inactive)
GI50 (MCF7): > 100 µM (inactive)
GI50 (BT-549): > 100 µM (inactive)
GI50 (MDA-N): > 100 µM (inactive)
GI50 (SR): 22.9 µM (inactive)
GI50 (EKVX): > 100 µM (inactive)
GI50 (HT-29): > 100 µM (inactive)
GI50 (SN12C): > 100 µM (inactive)
GI50 (SW-620): 83.6 µM (inactive)
GI50 (SK-MEL-5): 16.5 µM (inactive)
GI50 (NCI/ADR-RES): > 100 µM (inactive)
GI50 (OVCAR-3): > 100 µM (inactive)
GI50 (Hs-578T): > 100 µM (inactive)
GI50 (NCI-H23): > 100 µM (inactive)
GI50 (SK-MEL-2): > 100 µM (inactive)
GI50 (COLO 205): > 100 µM (inactive)
GI50 (SF-539): > 100 µM (inactive)
GI50 (ACHN): > 100 µM (inactive)
GI50 (SK-MEL-28): > 100 µM (inactive)
GI50 (MOLT-4): 17.4 µM (inactive)
GI50 (CAKI-1): > 100 µM (inactive)
GI50 (SF-295): > 100 µM (inactive)
GI50 (HL-60): 12.8 µM (inactive)
GI50 (MDA-MB-231): > 100 µM (inactive)
GI50 (OVCAR-5): > 100 µM (inactive)
GI50 (U-251): > 100 µM (inactive)
GI50 (NCI-H226): > 100 µM (inactive)
GI50 (KM12): > 100 µM (inactive)
GI50 (UACC-62): > 100 µM (inactive)
GI50 (SF-268): > 100 µM (inactive)
GI50 (HCT-15): > 100 µM
GI50 (TK-10): > 100 µM (inactive)
GI50 (RXF 393): > 100 µM (inactive)
GI50 (CCRF-CEM): 11 µM (inactive)
GI50 (HOP-62): > 100 µM (inactive)
GI50 (M14): > 100 µM (inactive)
GI50 (RPMI-8226): > 100 µM (inactive)
GI50 (A498): > 100 µM (inactive)
GI50 (OVCAR-8): > 100 µM (inactive)
